Here are results for three compounds from ChEMBL document CHEMBL1151640, “Benzoxazolinone, 2,4-Dihydroxy-1,4-benzoxazin-3-one, and Its Glucoside from Acanthus mollis Seeds Inhibit Velvetleaf Germination and Growth” (1985).

Molecules are shown by their SMILES.

Assay [1] deals with Abutilon theophrasti. Description: Phytotoxicity against Abutilon theophrasti assessed as seed germination at 2 mM after 2 days relative to control. Format: functional.
Assay [2] relates to Abutilon theophrasti. Description: Phytotoxicity against Abutilon theophrasti assessed as seed germination at 1 mM after 2 days relative to control. Format: functional.
The subject of assay [3] is Abutilon theophrasti. The assay is described as follows: Phytotoxicity against Abutilon theophrasti assessed as seed germination at 0.8 mM after 2 days relative to control. Format: functional.
In assay [4] the test system is Abutilon theophrasti. Description: Phytotoxicity against Abutilon theophrasti assessed as seed germination at 0.6 mM after 2 days relative to control. Format: functional.
Assay [5] deals with Abutilon theophrasti. Description: Phytotoxicity against Abutilon theophrasti assessed as seed germination at 1 mM after 4 days relative to control. Format: functional.
The test system of assay [6] is Abutilon theophrasti. Description: Phytotoxicity against Abutilon theophrasti assessed as seed germination at 0.8 mM after 4 days relative to control. Format: functional.
The test system of assay [7] is Abutilon theophrasti. Description: Phytotoxicity against Abutilon theophrasti assessed as seed germination at 0.6 mM after 4 days relative to control. Format: functional.
Assay [8] has as its system Abutilon theophrasti. Description: Phytotoxicity against Abutilon theophrasti assessed as seed germination at 2 mM after 2 weeks. Format: functional, organism-based.
For assay [9], the system named is Abutilon theophrasti. The assay is described as follows: Phytotoxicity against Abutilon theophrasti assessed as seed germination at 2 mM after 4 days relative to control. Format: functional.
Assay [10] relates to Abutilon theophrasti. Description: Phytotoxicity against Abutilon theophrasti assessed as seed germination at 5 mM after 2 days relative to control. Format: functional.
The test system of assay [11] is Abutilon theophrasti. The assay is described as follows: Phytotoxicity against Abutilon theophrasti assessed as seed germination at 0.5 mM after 2 days relative to control. Format: functional.
The test system of assay [12] is Abutilon theophrasti. The assay is described as follows: Phytotoxicity against Abutilon theophrasti assessed as seed germination at 5 mM after 4 days relative to control. Format: functional.
The subject of assay [13] is Abutilon theophrasti. Description: Phytotoxicity against Abutilon theophrasti assessed as seed germination at 0.5 mM after 4 days relative to control. Format: functional.

In the case of `O=C1C(O)Oc2ccccc2N1O` (stereo unspecified), the Activity in the assay with Abutilon theophrasti [1] is given as 0%; in the assay with Abutilon theophrasti [2], 6%; with Abutilon theophrasti [3], 40%; in the assay with Abutilon theophrasti [4], 59%; in the assay with Abutilon theophrasti [5], 72%; with Abutilon theophrasti [6], 82%. The Activity was 97% in the assay with Abutilon theophrasti [7], “Toxic” in the assay on Abutilon theophrasti [8] and 0% with Abutilon theophrasti [9].

For the compound `O=C1C(O[C@@H]2O[C@H](CO)[C@@H](O)[C@H](O)[C@H]2O)Oc2ccccc2N1O` (stereo partly specified), in the assay with Abutilon theophrasti [10], the Activity is listed as 89%.

For `O=c1[nH]c2ccccc2o1` [BENZOXAZOLINONE], the Activity with Abutilon theophrasti [2] worked out at 111%; in the assay on Abutilon theophrasti [5], 116%; in the assay with Abutilon theophrasti [10], 14%; with Abutilon theophrasti [11] it was 118%; in the assay with Abutilon theophrasti [12] it was 75%; with Abutilon theophrasti [13] it was 125%.
